Measured values taken from patent US20180022734A1 (Sound Biopharmaceuticals Ltd., priority 2015, published 2018).

Tests used:
786-O cell or A549 cell = assay: Cell morphology and survival rate after 4 to 8 hours incubation; assay type: cell-based, human
cancer cell xenograft = assay: Pharmacodynamic tests on mice xenograft transplantation model; assay type: in vivo
Description: (§1) For in vitro tests, compounds were directly dissolved in 10 mM DMSO and stored at −20° C. For in vivo tests, the compounds were dissolved in DMSO and neutralized by Tween 80 (DMSO:Tween=1:1) and further neutralized by PBS (pH 7.4). The final concentrations of DMSO and Tween-80 were 5%.
5×10^6 cancer cells were subcutaneously injected to the right side of mouse. Drug was intraperitoneally injected at dosages of 1.5 mg/kg, 7.5 mg/kg, 30 mg/kg to the mice, once a day, for 2 weeks when average tumor size reached 75 to 150 mm^3. The size of the tumor was measured every other day. […] Compound 1 had less efficacy.
We then performed the test through oral route. 5×10^6 cancer cells were subcutaneously injected to the right side of mouse. Drug was orally administered at dosages of 5 mg/kg, 15 mg/kg, 45 mg/kg to the mice, once a day, for 2 weeks when average tumor size reached 75 to 150 mm^3. The size of the tumor was measured every other day.

[1] = Acute toxicity test: maximum tolerance dosage (MTD) determination; assay type: in vivo, BALB/c mice
Description: Methods: Femal BALB/c mice, 4-5 weeks old, weighted greater than 17 g, were used for the test. […] The body weights and conditions of the mice were recorded.
In contrast, the body weights of mice in compound 2 group increased 6.0% in average.
To further explore the toxicity of the compounds, blood was collected after 14-day treatment of drugs and critical biochemical index were analyzed.

pSTAT3 = assay: Effects on STAT3 phosphorylation in A549 cell line; assay type: cell-based, human; settings: 10 μM
Description: as §1

[2] = tested on: A549; NCI-H460; 786-O; Caki-1; HT-29; MCF-7; assay: 72 hour cytotoxicity (CCK8) in different cell lines; assay type: cell-based, human; settings: 72 hours, CCK8; FIG. 5a-f
From the text: A549 human non-small cell lung cancer cell line, NCI-H460 human non-small cell lung cancer cell line, 786-O human renal cell line, Caki-1 human renal cell line, HT-29 human colon cancer cell line, MDA-MB-231 human breast cancer cell line, and MCF-7 human breast cancer cell line was purchased from Chinese Academy of Science Shanghai Branch. PLC/PRF-5 human hepatoma cell line and Hepal-6 mouse hepatoma cell line were obtained from Institute of Biochemistry and Cell Biology, SIBS, CAS (SIBCB). Cell lines A549, Caki-1, HT-29, MDA-MB-231, MCF-7, PLC/PRF-5 and Hepal-6 were cultured in DMEM medium (Gibco, Life Technologies, China) and cell lines NCI-H460 and 786-O were cultured in RPMI-1640 medium (Gibco, Life Technologies, China). 10% HI fetal bovine serum was purchased from Gibco, Life Technologies, USA and 1% penicillin/streptomycin was obtained from Hyclone.
Approx. 2,000 cells in 50 μL complete medium were plated on each well of a 96-well plate and incubated at 37° C., 5% CO2 overnight. Drugs at concentrations of 0.02 to 10 μM were dissolved in 0.1% DMSO, followed by addition into each well. After incubation for 72 hours, 10 μL CCK8 (Dojindo) was added into each well, followed by incubation at 37° C. for another 4 hours. The OD values were obtained by TECAN Microplate Reader at 450 nm.
as §1

[3] = Stability of compounds 1 and 2 in MeOH stock solution and with biomass; assay type: physicochemical
From the text: No prodrug was detected in organs except for spleen during processing. […] The prodrugs may be converted to Sunitinib or other metabolite during processing or in vivo.

[4] = Oral route (intragastric gavage) study of Sunitinib and compounds 1 and 2 in mice; assay type: in vivo; parameters: AUCpo: unit not given beside the values; settings: mice, intragastric gavage
From the text: Animal experiments: 24 mice in each group were divided into 8 sub-groups.

[5] = Pharmacokinetics and organ distribution after intravenous administration of Sunitinib, Compound 1 and Compound 2 in mice; parameters: AUCiv: unit not given beside the values; settings: mice
From the text: Relative Exposure(RE)=AUCi sample/AUCi control
AUCi—area under curve for the i^th organ or tissue; RE>1 indicates targeting at the organ or tissue, with larger RE indicating greater targeting; RE≦1 indicates non-targeting.
RTE refers to the multiple of the percent of drug content in a tissue of sample group with respect to total drug amount in the body vs. that in a control group. Positive RTE values indicate enhanced targeting effects and the more positive the more the multiple of enhancement and the more the enhanced targeting. In contrast, negative RTE values indicate reduced targeting effects. Value 0 indicate no influence to the tissue.
0.083 h, 0.25 h, 0.5 h, 1 h, 3 h, 8 h post injection, blood was taken by eyeball removal and the mice were sacrificed by cervical dislocation. Tissues were perfused with normal saline and livers and kidneys were removed and cleaned with normal saline. The blood samples were centrifuged to obtain supernatants and stored at −20° C. 50 μL plasma sample and 50 μL internal standard (clozapine) working solution was vortexed with 300 μL MeOH and then centrifuged. 150 μL upper organic phase was obtained and mixed with 150 μL water, followed by centrifugation. 10 μL supernatant was sampled for analysis. The tissue samples were weighted and mixed homogeneously with 10 times weight of water. Since the samples were 10-time diluted, the concentration of the tissue would be 10 times the results determined. The heart tissue was 5-time diluted. 100 μL homogenate was mixed with 50 μL internal standard (clozapine) working solution and 300 μL MeOH and then centrifuged. 150 μL upper organic phase was obtained and mixed with 150 μL water, followed by centrifugation. 10 μL supernatant was sampled for analysis.

[6] = oral once a day for 14 days, 175 mg/kg
[7] = repeated test, oral once a day, 200 mg/kg
[8] = 19.248 mg/kg Compound 1, 20 mg/kg Compound 2, 20 mg/kg Sunitinib malate
[9] = 5.13 mg/kg Compound 1, 5.32 mg/kg Compound 2, 5.14 mg/kg Sunitinib malate, All (sum of organs and plasma)
[10] = 5.13 mg/kg Compound 1, 5.32 mg/kg Compound 2, 5.14 mg/kg Sunitinib malate, heart
[11] = 5.13 mg/kg Compound 1, 5.32 mg/kg Compound 2, 5.14 mg/kg Sunitinib malate, kidney
[12] = 5.13 mg/kg Compound 1, 5.32 mg/kg Compound 2, 5.14 mg/kg Sunitinib malate, liver
[13] = 5.13 mg/kg Compound 1, 5.32 mg/kg Compound 2, 5.14 mg/kg Sunitinib malate, lung
[14] = 5.13 mg/kg Compound 1, 5.32 mg/kg Compound 2, 5.14 mg/kg Sunitinib malate, plasma
[15] = 5.13 mg/kg Compound 1, 5.32 mg/kg Compound 2, 5.14 mg/kg Sunitinib malate, spleen

CCN(CC)CCNC(=O)c1c(C)[nH]c(C=C2C(=O)N(CC(=O)Oc3ccccc3)c3ccc(F)cc32)c1C [Compound 2, N-[2-(diethylamino)ethyl]-5-[(5-fluoro-2-oxo-1-(phenylcarboxymethyl)-2,3-indolin-3-ylmethylene)]-2,4-dimethyl-1H-pyrrolidine-3-carboxamide]
cell survival (786-O cell or A549 cell; 786-O cell or A549 cell, incubated for 8 hours): mass cell death | cell morphology (786-O cell or A549 cell; cancer cells incubated for 4 hours): changed to round and suffered from stress | efficacy on tumor size (cancer cell xenograft; intraperitoneally injected 1.5, 7.5, 30 mg/kg once a day for 2 weeks): improved efficacy than Sunitinib | efficacy on tumor size (cancer cell xenograft; orally administered 5, 15, 45 mg/kg once a day for 2 weeks): improved efficacy than Sunitinib | critical biochemical index (AST, ALT, CHE, urate, blood urea nitrogen, glucose, LDH, CK, CKMB) ([1]; blood after 14-day treatment, 200 mg/kg): except for AST and ALT, these indices were all within normal ranges | body weights increased in average [1, 6]: 6.0% | condition of the mice [1, 6]: performed similarly with negative control group | influence on body weight ([1]; repeated test, oral once a day, 100 mg/kg): little influence on body weight | body weights increased in average [1, 7]: 6.0% | condition of the mice [1, 7]: performed similarly with negative control group | inhibition of pSTAT3 (pSTAT3): strong inhibition | IC50 values among several cell lines [2]: comparable | tumor killing effects / cytotoxicity [2]: relatively strong tumor killing effects | stability in the event of coexisting with biomass ([3]; coexisting with biomass): easy to degrade | stability in MeOH stock solution ([3]; stability test period: 7 days): stable | AUC, times higher than Sunitinib [4]: approx. 3.5 times | AUC0→∞ [4, 8]: 61.5 ng·h/mL | Cl [4, 8]: 4094.7 mL/h | Cmax [4, 8]: 27.00 ng/mL | Tmax [4, 8]: 1.50 h | t1/2 [4, 8]: 3.89 h | AUCpo ([4]; Dpo 15.00, in ng·h/mL): 951.1 | AUC [5, 9]: 3926.9 ng·h/mL | Cmax [5, 9]: 2673.1 ng/mL | AUC [5, 10]: 97.0 ng·h/mL | Cmax [5, 10]: 122.4 ng/mL | AUC [5, 11]: 474.2 ng·h/mL | Cmax [5, 11]: 258.0 ng/mL | AUC [5, 12]: 1047.1 ng·h/mL | Cmax [5, 12]: 742.7 ng/mL | AUC [5, 13]: 1235.0 ng·h/mL | Cmax [5, 13]: 763.8 ng/mL | AUC [5, 14]: 408.8 ng·h/mL | AUCall [5, 14]: 408.8 ng·h/mL | Cl [5, 14]: 324.9 mL/h | Cmax [5, 14]: 564.4 ng/mL | Tmax [5, 14]: 4.8 min | V [5, 14]: 406.1 mL | AUC [5, 15]: 664.8 ng·h/mL | Cmax [5, 15]: 221.8 ng/mL | AUCiv ([5]; Div 3.86, in ng·h/mL): 408.8 | Cmax, times than that of the control ([5]; control = Sunitinib): approx. 5 times | RTE analysis: distribution proportions in organs ([5]; vs Sunitinib control): increased distribution proportions in spleen and lung, decreased proportions in heart and kidney but great enhancement in plasma | RE ([5]; vs Sunitinib control, heart): 0.13 | RTE ([5]; vs Sunitinib control, heart): −0.55 | RE ([5]; vs Sunitinib control, kidney): 0.16 | RTE ([5]; vs Sunitinib control, kidney): −0.45 | RE ([5]; vs Sunitinib control, liver): 0.47 | RTE ([5]; vs Sunitinib control, liver): 0.66 | RE ([5]; vs Sunitinib control, lung): 0.28 | RTE ([5]; vs Sunitinib control, lung): −0.01 | RE ([5]; vs Sunitinib control, plasma): 1.12 | RTE ([5]; vs Sunitinib control, plasma): 2.93 | RE ([5]; vs Sunitinib control, spleen): 0.22 | RTE ([5]; vs Sunitinib control, spleen): −0.23
